Measurements published in patent US20230049231A1 (priority 2019, published 2023).
pIC50: −log10 of the molar value.

Key:
hERG channel = target: T1, hERG channel (Homo sapiens, UniProt Q12809); assay: hERG electrophysiology, automated whole-cell patch clamp (Patchliner); assay type: cell-based
T1 construct: expressed in transfected cells
Method in brief: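 Currents were recorded at 0.3 Hz from −80 mV, stepping to +20 mV then −50 mV (300 ms each), in stably transfected CHO-K1 cells. Concentrations (30 nM–100 μM, up to 0.3% DMSO) were added sequentially without washout. IC50 came from Hill fits of control-normalized AUC/peak of each train's final pulse.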

Kv1.3 potassium channel = target: T2, Kv1.3 potassium channel (Homo sapiens, UniProt P22001); assay: Kv1.3 potassium channel blocker activity, automated whole-cell patch clamp (Patchliner); assay type: cell-based
T2 construct: expressed in transfected cells
T2 sequence (P22001 whole entry): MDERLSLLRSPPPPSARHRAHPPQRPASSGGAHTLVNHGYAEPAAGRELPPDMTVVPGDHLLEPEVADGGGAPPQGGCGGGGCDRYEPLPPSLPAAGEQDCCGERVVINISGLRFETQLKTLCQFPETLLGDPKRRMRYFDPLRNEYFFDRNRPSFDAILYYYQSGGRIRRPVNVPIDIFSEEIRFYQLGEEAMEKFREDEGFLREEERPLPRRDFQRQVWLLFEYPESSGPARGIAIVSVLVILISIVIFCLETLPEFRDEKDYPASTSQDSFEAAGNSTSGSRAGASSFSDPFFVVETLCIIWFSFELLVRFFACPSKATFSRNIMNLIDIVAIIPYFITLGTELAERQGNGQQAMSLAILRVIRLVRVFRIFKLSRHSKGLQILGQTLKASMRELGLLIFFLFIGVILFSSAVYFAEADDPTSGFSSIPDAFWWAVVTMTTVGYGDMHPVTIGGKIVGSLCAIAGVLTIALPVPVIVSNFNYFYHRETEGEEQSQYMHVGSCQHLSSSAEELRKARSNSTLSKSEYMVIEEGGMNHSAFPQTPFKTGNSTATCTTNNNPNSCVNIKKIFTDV
Method in brief: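 IC50 came from Hill-equation fits of peak and AUC currents from the final pulse at each concentration, normalized to compound-free control. Compounds applied consecutively at 30 nM to 100 μM (up to 0.3% DMSO) to Kv1.3-expressing CHO-K1 cells, P/4 leak subtraction. Pulses were +40 mV, 100 ms, from −90 mV holding, at 0.1 Hz on Patchliner.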

[1] = hERG channel, whole-cell patch clamp
[2] = Kv1.3 potassium channel, whole-cell patch clamp
[3] = CHO-K1 cells stably expressing hERG, +20 mV 300 ms, -50 mV 300 ms tail current, 0.3 Hz
[4] = CHO-K1 cells stably expressing Kv1.3, 100 ms pulses from -90 mV to +40 mV, 0.1 Hz

T1 sequence (Q12809 whole entry): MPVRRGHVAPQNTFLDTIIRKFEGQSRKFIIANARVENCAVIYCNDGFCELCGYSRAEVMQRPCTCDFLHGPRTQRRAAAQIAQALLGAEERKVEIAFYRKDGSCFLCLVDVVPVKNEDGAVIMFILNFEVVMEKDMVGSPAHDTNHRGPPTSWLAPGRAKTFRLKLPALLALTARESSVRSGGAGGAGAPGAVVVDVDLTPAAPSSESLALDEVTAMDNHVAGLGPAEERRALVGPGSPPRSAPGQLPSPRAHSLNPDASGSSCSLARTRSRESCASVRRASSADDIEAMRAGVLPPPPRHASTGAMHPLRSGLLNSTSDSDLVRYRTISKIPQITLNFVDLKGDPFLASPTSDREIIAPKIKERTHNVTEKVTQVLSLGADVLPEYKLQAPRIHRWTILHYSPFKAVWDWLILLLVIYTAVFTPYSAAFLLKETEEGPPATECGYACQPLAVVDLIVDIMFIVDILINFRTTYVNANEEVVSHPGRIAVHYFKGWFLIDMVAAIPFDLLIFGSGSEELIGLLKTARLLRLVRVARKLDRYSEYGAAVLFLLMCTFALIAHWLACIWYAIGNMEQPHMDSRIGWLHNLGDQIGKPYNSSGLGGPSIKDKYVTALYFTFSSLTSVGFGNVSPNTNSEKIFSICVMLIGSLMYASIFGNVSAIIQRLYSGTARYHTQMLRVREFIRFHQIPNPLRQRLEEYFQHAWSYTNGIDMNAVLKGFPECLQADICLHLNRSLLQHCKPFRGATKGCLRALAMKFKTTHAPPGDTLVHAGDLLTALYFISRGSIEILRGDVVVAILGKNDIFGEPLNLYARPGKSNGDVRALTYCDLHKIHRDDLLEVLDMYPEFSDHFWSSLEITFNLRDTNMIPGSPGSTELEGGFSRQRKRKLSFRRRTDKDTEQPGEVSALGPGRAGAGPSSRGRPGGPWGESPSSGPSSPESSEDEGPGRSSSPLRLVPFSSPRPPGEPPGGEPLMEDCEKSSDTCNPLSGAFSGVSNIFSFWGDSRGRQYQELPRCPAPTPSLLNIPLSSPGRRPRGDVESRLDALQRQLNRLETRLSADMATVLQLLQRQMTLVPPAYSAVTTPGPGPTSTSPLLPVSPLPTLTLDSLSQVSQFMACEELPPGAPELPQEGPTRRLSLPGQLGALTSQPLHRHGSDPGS

Row | SMILES | pIC50 (hERG channel; [1]) | pIC50 (Kv1.3 potassium channel; [2]) | pIC50 (hERG channel; [3]) | pIC50 (Kv1.3 potassium channel; [4])
1 | O=C1O[C@@H](CN2CC(O)C2)[C@@H]2C[C@H](c3c(O)ccc(Cl)c3Cl)CN12 (single isomer, unassigned) [Compound 282] | > 4.52 | > 6.00 | – | –
2 | O=C1O[C@H](CN2CC(O)C2)[C@@H]2C[C@H](c3c(O)ccc(Cl)c3Cl)CN12 (single isomer, unassigned) [Compound 283] | < 4.52 | > 6.00 | – | –
3 | O=C1O[C@@H](CN2CCOCC2)[C@@H]2C[C@H](c3c(O)ccc(Cl)c3Cl)CN12 (single isomer, unassigned) [Compound 284] | < 4.52 | > 6.00 | – | –
4 | O=C1O[C@H](CN2CCOCC2)[C@@H]2C[C@H](c3c(O)ccc(Cl)c3Cl)CN12 (single isomer, unassigned) [Compound 285] | < 4.52 | > 6.00 | – | –
5 | NC(=O)[C@@H]1OC(=O)N2C[C@@H](c3c(O)ccc(Cl)c3Cl)C[C@@H]12 (single isomer, unassigned) [Compound 286] | < 4.52 | > 6.00 | – | –
6 | NC(=O)[C@H]1OC(=O)N2C[C@@H](c3c(O)ccc(Cl)c3Cl)C[C@@H]12 (single isomer, unassigned) [Compound 287] | < 4.52 | > 6.00 | – | –
7 | CNC(=O)[C@@H]1OC(=O)N2C[C@@H](c3c(O)ccc(Cl)c3Cl)C[C@@H]12 (single isomer, unassigned) [Compound 288] | < 4.52 | > 6.00 | – | –
8 | O=C1CN(C(=O)[C@H]2C[C@H](O)C2)C[C@@H]2C[C@H](c3c(O)ccc(Cl)c3Cl)CN12 (single isomer, unassigned; isomer 1) [Compound 27] | – | – | < 4.52 | > 6.00
9 | O=C1C[C@@H](O)C[C@@H]2C[C@H](c3c(O)ccc(Cl)c3Cl)CN12 (single isomer, unassigned; isomer 1) [Compound 61] | – | – | < 4.52 | > 6.00
10 | C[C@@H]1CN(C(=O)CO)C[C@@H]2C[C@H](c3c(O)ccc(Cl)c3Cl)CN2C1=O (single isomer, unassigned; isomer 1) [Compound 91] | < 4.52 | > 6.00 | – | –
11 | O=C1CN(C[C@@H]2CCN2)C[C@@H]2C[C@H](c3c(O)ccc(Cl)c3Cl)CN12 (single isomer, unassigned; isomer 1) [Compound 139] | < 4.52 | > 6.00 | – | –
12 | C[C@@H](O)CN1CC(=O)N2C[C@@H](c3c(O)ccc(Cl)c3Cl)C[C@H]2C1 (single isomer, unassigned; isomer 1) [Compound 150] | < 4.52 | > 6.00 | – | –
13 | COC[C@@H](O)CN1CC(=O)N2C[C@@H](c3c(O)ccc(Cl)c3Cl)C[C@H]2C1 (single isomer, unassigned; isomer 1) [Compound 152] | > 4.52 | > 6.00 | – | –
14 | O=C1C[C@@H](N2CC(=O)N3C[C@@H](c4c(O)ccc(Cl)c4Cl)C[C@H]3C2)CN1 (single isomer, unassigned; isomer 1) [Compound 160] | < 4.52 | > 6.00 | – | –
15 | O=C1CN([C@H]2C[C@](O)(CO)C2)C[C@@H]2C[C@H](c3c(O)ccc(Cl)c3Cl)CN12 (single isomer, unassigned; isomer 1) [Compound 163] | < 4.52 | > 6.00 | – | –
16 | O=C1CN(C(=O)[C@H]2C[C@@H](O)C2)C[C@@H]2C[C@H](c3c(O)ccc(Cl)c3Cl)CN12 (single isomer, unassigned; isomer 2) [Compound 22] | – | – | < 4.52 | > 6.00
17 | O=C1C[C@H](O)C[C@@H]2C[C@H](c3c(O)ccc(Cl)c3Cl)CN12 (single isomer, unassigned; isomer 2) [Compound 62] | – | – | < 4.52 | > 6.00
18 | C[C@H]1[C@@H]2C[C@H](c3c(O)ccc(Cl)c3Cl)CCN2C(=O)CN1C(=O)CO (single isomer, unassigned; isomer 2) [Compound 84] | < 4.52 | > 6.00 | – | –
19 | C[C@H]1[C@@H]2C[C@H](c3c(O)ccc(Cl)c3Cl)CN2C(=O)CN1C(=O)CO (single isomer, unassigned; isomer 2) [Compound 88] | < 4.52 | > 6.00 | – | –
